Test results from patent publication EP0509470A2, “Therapeutical compositions having anti-HIV activity consisting of 2',3'-didesoxyadenosine and substances inhibiting adenosine deaminase” (REPLA CHEMICAL LTD., priority 1991, dated 1992).
Where two headings read alike, the source gives them in different places.

What was measured:
[1] = system: HIV-1; experiment: Inhibition of infecting HIV production in C8166 cells (end point titration); assay type: cell-based; conditions: for EC90: read-out: ED90 (the source's name)
Procedure: (§1) The cellular lines utilized in this study were: H9, T lymphocytes, CD4+, permissive for the HIV replication but partially resistant to its cytopathic effect; • H9/IIIB, H9 lymphocytes chronically infected by HTLV/IIIB virus; • MT4 and C8166, T lymphocytes lines, CD4+ permissive for HIV replication. In C8166 the virus induces a cytopathic effect which results in the formation of syncytia easily visible at the optical microscope.
(§2) All the lymphoid lines were cultured in RPMI 1640 containing 10 % of non decomplemented fetal calf serum (FCS), penicillin 100U/mL and streptomycin 100 µg/mL and incubated at 37 °C in 5% CO₂.
(§3) HIV virus was obtained by H9/IIIB cells surnatant taken at the end of their exponential growth.
(§4) The titre of several stock preparations was comprised between 2 and 5 x 10⁵ Cell Culture Infection Dose 50 (CCID50)/mL.
(§5) For the evaluation of the anti-HIV activity the inhibition of infecting HIV production was determined as follows.
(§6) C8166 or MT4 cells sown at a density of 1 x 10⁶ cells/ml, were infected with a multiplicity of infection (m.o.i.) comprised between 0.05 and 0.02 CCID50/cell. After two hours of incubation at 37 °C and subsequent removal of the inoculum, the cells were washed three times and resuspended at a density of 1 x 10⁵ cells/ml. in the absence or in the presence of the compounds to be investigated.
(§7) After 4 days of incubation at 37 °C the presence of syncytia was evaluated at the optical microscope and the quantity of infecting HIV present in the surnatant of the cultures was determined by end point titration.
(§8) HIV titration was carried out in C8166 cells sown at a density of 1 x 10⁵ cells/mL/well, by the limit dilution method (dilution ratio 1:2, every dilution being sown in quadruplicate).
(§9) After four days of incubation, the syncytia presence was evaluated at the microscope and the viral titre was calculated by the Reed and Muench method.

[2] = Cytotoxicity evaluation (cell number in Coulter after 96 hours); assay type: cell-based; conditions: human
Procedure: as §1, §2
(§10) For the cytotoxicity evaluation, the cells were resuspended in a culture medium at a density of 1 x 10⁵/mL, were incubated in the absence or in the presence of various concentration of the compounds to be studied and their number was determined in Coulter after 96 hours of incubation at 37 °C.

[3] = system: MT4 cells; experiment: as above; assay type: cell-based
Procedure: as §1, §2, §10

[4] = system: HIV-1; experiment: Inhibition of infecting HIV production in MT4 cells (end point titration); assay type: cell-based; conditions: for EC90: read-out: ED90 (the source's name); for enhancement of the anti-HIV-1 activity of ddAdo (10 µM): compound used at its MNTD together with ddAdo 10 µM, Fig. 1
Procedure: as §1, §2, §3, §4, §5, §6, §7, §8, §9

[5] = system: C8166 cells; experiment: Cytotoxicity evaluation (cell number in Coulter after 96 hours); assay type: cell-based; conditions: C8166 cells; concentrations up to 500 µM
Procedure: as §1, §2, §10

[6] = system: human T lymphocytes; conditions: G. Ahluwalia et al. 1987; cited from earlier work
[7] = C8166 cells, compound alone, Table 2
[8] = ddAdo alone (EHNA absent), C8166, Table 3
[9] = c8166 cells, maxima non cytotoxic doses (MNTD)
[10] = mt4 cells, maxima non cytotoxic doses (MNTD)
[11] = MT4 cells, compound alone, Table 2
[12] = ddAdo alone (Coformycin absent), MT4, Table 4
[13] = ddAdo alone (desoxycoformycin absent), MT4, Table 5
[14] = ddAdo with Coformycin 0.02 (unit not given), MT4
[15] = ddAdo with Coformycin 0.06 (unit not given), MT4
[16] = ddAdo with Coformycin 0.2 (unit not given), MT4
[17] = ddAdo with Coformycin 0.5 (unit not given), MT4
[18] = ddAdo with Coformycin 1.6 (unit not given), MT4
[19] = ddAdo with Coformycin 5 (unit not given), MT4
[20] = ddAdo with Coformycin 15 (unit not given), MT4
[21] = ddAdo with Coformycin 45 (unit not given), MT4
[22] = ddAdo with desoxycoformycin 0.05 (unit not given), MT4
[23] = ddAdo with desoxycoformycin 0.5 (unit not given), MT4
[24] = ddAdo with desoxycoformycin 5 (unit not given), MT4
[25] = ddAdo with desoxycoformycin 50 (unit not given), MT4
[26] = MT4 cells, concentrations up to 500 µM

SMILES: Nc1ncnc2c1ncn2[C@H]1CC[C@@H](CO)O1 [ddAdo, 2',3'-didesoxyadenosine]
- EC90 [1, 7]: 25 µM
- ED99 [1, 8]: 39.0 µM
- ED99.9 [1, 8]: 61.0 µM
- ED99 ([1]; ddAdo with EHNA 0.06 µM, C8166): 30.5 µM
- ED99.9 ([1]; ddAdo with EHNA 0.06 µM, C8166): 52.0 µM
- EC90 ([1]; ddAdo with EHNA 0.06 µM, C8166): 10.5 µM
- ED99 ([1]; ddAdo with EHNA 0.2 µM, C8166): 18.0 µM
- ED99.9 ([1]; ddAdo with EHNA 0.2 µM, C8166): 42.5 µM
- EC90 ([1]; ddAdo with EHNA 0.2 µM, C8166): 7.5 µM
- ED99 ([1]; ddAdo with EHNA 0.5 µM, C8166): 14.5 µM
- ED99.9 ([1]; ddAdo with EHNA 0.5 µM, C8166): 34.5 µM
- EC90 ([1]; ddAdo with EHNA 0.5 µM, C8166): 6.5 µM
- ED99 ([1]; ddAdo with EHNA 1.6 µM, C8166): 11.5 µM
- ED99.9 ([1]; ddAdo with EHNA 1.6 µM, C8166): 25.5 µM
- EC90 ([1]; ddAdo with EHNA 1.6 µM, C8166): 5 µM
- ED99 ([1]; ddAdo with EHNA 5 µM, C8166): 10.0 µM
- ED99.9 ([1]; ddAdo with EHNA 5 µM, C8166): 23.5 µM
- EC90 ([1]; ddAdo with EHNA 5 µM, C8166): 3.5 µM
- ED99 ([1]; ddAdo with EHNA 15 µM, C8166): 7.5 µM
- ED99.9 ([1]; ddAdo with EHNA 15 µM, C8166): 17.5 µM
- EC90 ([1]; ddAdo with EHNA 15 µM, C8166): 3 µM
- CC50 at 96 h ([2]; c8166 cells): > 1000 µM
- MNTC at 96 h ([2]; c8166 cells, MNTD): > 1000 µM
- MNTC at 96 h [2, 9]: ≥ 1000 µM
- CC50 at 96 h ([2]; mt4 cells): > 1000 µM
- MNTC at 96 h ([2]; mt4 cells, MNTD): > 1000 µM
- MNTC at 96 h [2, 10]: ≥ 1000 µM
- MNTC at 96 h ([2]; mt4 cells, in association with 15 µM of EHNA, Fig. 2, read-out: MNTD of ddAdo): 60 µM
- MNTC at 96 h ([2]; mt4 cells, in association with 125 µM of CF, Fig. 3, read-out: MNTD of ddAdo): 60 µM
- MNTC ([3]; human, mt4 cells, 96 h): 1 mM
- EC90 [4, 11]: 10 µM
- ED99 [4, 12]: 19.0 µM
- ED99.9 [4, 12]: 32.0 µM
- EC90 [4, 12]: 11 µM
- ED99 [4, 13]: 14.3 µM
- ED99.9 [4, 13]: 23.8 µM
- EC90 [4, 13]: 4.8 µM
- EC90 ([4]; ddAdo with Coformycin 0.02 (unit inferred), MT4): 4 µM
- ED99 [4, 14]: 7.6 µM
- ED99.9 [4, 14]: 13.7 µM
- ED99 [4, 15]: 7.1 µM
- ED99.9 [4, 15]: 12.5 µM
- ED99 [4, 16]: 5.0 µM
- ED99.9 [4, 16]: 8.0 µM
- EC90 ([4]; ddAdo with Coformycin 0.5 (unit inferred), MT4): 3.6 µM
- ED99 [4, 17]: 5.0 µM
- ED99.9 [4, 17]: 8.0 µM
- EC90 ([4]; ddAdo with Coformycin 1.6 (unit inferred), MT4): 2.5 µM
- ED99 [4, 18]: 4.5 µM
- ED99.9 [4, 18]: 7.5 µM
- EC90 ([4]; ddAdo with Coformycin 5 (unit inferred), MT4): 2 µM
- ED99 [4, 19]: 4.0 µM
- ED99.9 [4, 19]: 7.5 µM
- EC90 ([4]; ddAdo with Coformycin 15 (unit inferred), MT4): 1.5 µM
- ED99 [4, 20]: 3.5 µM
- ED99.9 [4, 20]: 7.5 µM
- EC90 ([4]; ddAdo with Coformycin 45 (unit inferred), MT4): 1 µM
- ED99 [4, 21]: 2.5 µM
- ED99.9 [4, 21]: 7.0 µM
- ED99 [4, 22]: 8.0 µM
- ED99.9 [4, 22]: 14.4 µM
- EC90 ([4]; ddAdo with desoxycoformycin 0.5 (unit inferred), MT4): 1.3 µM
- ED99 [4, 23]: 7.8 µM
- ED99.9 [4, 23]: 14.2 µM
- EC90 ([4]; ddAdo with desoxycoformycin 5 (unit inferred), MT4): 1.1 µM
- ED99 [4, 24]: 6.2 µM
- ED99.9 [4, 24]: 11.2 µM
- EC90 ([4]; ddAdo with desoxycoformycin 50 (unit inferred), MT4): 0.9 µM
- ED99 [4, 25]: 3.8 µM
- ED99.9 [4, 25]: 6.7 µM

SMILES: CCCCCC[C@H]([C@H](C)O)n1cnc2c(N)ncnc21 (relative stereo) [EHNA, 9-(erythro-2-hydroxy-3-nonyl) adenine]
- EC90 [1, 7]: > 15 µM
- lowest concentration enhancing ddAdo anti-HIV activity, relative to its MNTD ([1]; EHNA with ddAdo, C8166): 250 times lower
- CC50 at 96 h ([2]; c8166 cells): 25 µM
- MNTC at 96 h ([2]; c8166 cells, MNTD): 15 µM
- CC50 at 96 h ([2]; mt4 cells): 35 µM
- MNTC at 96 h ([2]; mt4 cells, MNTD): 10 µM
- EC90 [4, 11]: > 10 µM
- enhancement of the anti-HIV-1 activity of ddAdo (10 µM) ([4]; MT4 cells): highest enhancing effect

SMILES: OC[C@H]1O[C@@H](n2cnc3c2NC=NC[C@H]3O)C[C@@H]1O [dCF, desoxycoformycin]
- anti-HIV-1 activity ([1]; C8166 cells, concentrations up to 500 µM): without any anti-HIV-1 activity
- toxicity [5]: non toxic
- toxicity [3, 26]: non toxic
- anti-HIV-1 activity [4, 26]: without any anti-HIV-1 activity
- lowest concentration enhancing ddAdo anti-HIV activity, relative to its MNTD ([4]; dCF with ddAdo, MT4): more than 10,000 times lower

SMILES: CCCCCC[C@H]([C@H](C)O)n1ccc2c(N)ncnc21 (relative stereo) [7-deaza-EHNA]
- CC50 at 96 h ([2]; mt4 cells): 50 µM
- MNTC at 96 h ([2]; mt4 cells, MNTD): 5 µM
- EC90 [4, 11]: > 5 µM

SMILES: OC[C@@H]1CC[C@H](n2cnc3c(O)ncnc32)O1 [ddIno, 2',3'-didesoxy-inosine, reference compound]
- EC90 [1, 7]: 28 µM
- entry into the cells, less efficient than that of ddAdo [6]: 4-6 time
- CC50 at 96 h ([2]; c8166 cells): > 1000 µM
- MNTC at 96 h ([2]; c8166 cells, MNTD): > 1000 µM
- MNTC at 96 h [2, 9]: ≥ 1000 µM
- CC50 at 96 h ([2]; mt4 cells): > 1000 µM
- MNTC at 96 h ([2]; mt4 cells, MNTD): > 1000 µM
- MNTC at 96 h [2, 10]: ≥ 1000 µM
- EC90 [4, 11]: 11 µM

SMILES: CCCCCC[C@H]([C@H](C)O)n1cnc2c(N)ccnc21 (relative stereo) [1-deaza-EHNA]
- CC50 at 96 h ([2]; mt4 cells): 75 µM
- MNTC at 96 h ([2]; mt4 cells, MNTD): 20 µM
- EC90 [4, 11]: 20 µM

SMILES: CCCCCC[C@H]([C@H](C)O)n1cnc2c(N)nccc21 (relative stereo) [3-deaza-EHNA]
- CC50 at 96 h ([2]; mt4 cells): 30 µM
- MNTC at 96 h ([2]; mt4 cells, MNTD): 10 µM
- EC90 [4, 11]: > 10 µM
- enhancement of the anti-HIV-1 activity of ddAdo (10 µM) ([4]; MT4 cells): highest enhancing effect

SMILES: OC[C@H]1O[C@@H](n2cnc3c2N=CNC[C@H]3O)[C@H](O)[C@@H]1O [CF, coformycin]
- EC90 [1, 7]: > 250 µM
- CC50 at 96 h ([2]; c8166 cells): > 250 µM
- MNTC at 96 h ([2]; c8166 cells, MNTD): > 250 µM
- CC50 at 96 h ([2]; mt4 cells): > 250 µM
- MNTC at 96 h ([2]; mt4 cells, MNTD): > 250 µM
- MCC at 96 h ([2]; cell line not specified, read-out: cytotoxic concentration): 250 µM
- lowest concentration enhancing ddAdo anti-HIV activity, relative to its MNTD ([4]; CF with ddAdo, MT4): more than 12500 times lower
- EC90 [4, 11]: > 250 µM

SMILES: CCCCCC[C@H]([C@H](C)O)n1cnc2c(N)cccc21 (relative stereo) [1,3-dideaza-EHNA]
- CC50 at 96 h ([2]; mt4 cells): 15 µM
- MNTC at 96 h ([2]; mt4 cells, MNTD): 5 µM
- EC90 [4, 11]: > 5 µM
